Test results reported in patent US20260258035A1, “FIVE-MEMBERED AND SIX-MEMBERED NITROGEN-CONTAINING COMPOUND, AND INTERMEDIATE, PREPARATION METHOD AND USE THEREOF” (HANGZHOU SYNRX THERAPEUTICS BIOMEDICAL TECHNOLOGY CO., LTD., priority 2022, published 2026).
In brackets after ≈: the same amount, converted by molar mass. Where two headings read alike, the source gives them in different places.

Key:
[1] = target: PARG (poly ADP-ribonal hydrolase) (Homo sapiens, UniProt Q86W56); assay: Biochemical assay (PARG, TFMU-ADPr substrate); settings: PARG, TFMU-ADPr substrate
[2] = target: PARG (Homo sapiens, UniProt Q86W56); assay: Biochemical assay (PARG, TFMU-ADPr substrate)
[3] = system: Human breast squamous carcinoma cells HCC1806; assay: Cell function assay (In-Cell Western, PAR/pADPr after MMS); assay type: cell-based; settings: read-out: IC50 (nM) in cell function assay
How it was run: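 HCC1806 cells adhered 24 h at 37 °C, 5% CO2, then were pretreated 1 h with compound (30000 nM down to 1 nM, plus 0 nM) or DMSO. MMS was then added at 0.5 mM final for 1 h before In-Cell Western detection of PAR/pADPr.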

[4] = system: HCC1806; assay: Cell viability assay (CellTiter-Glo); assay type: cell-based, Human; settings: HCC1806, 7 days, CellTiter-Glo, read-out: IC50 (nM) in cell viability assay
[5] = Solubility assay (FaSSGF / FaSSIF); assay type: physicochemical; settings: kinetic from dmso stock, 2 h at 25° C.
Description: 1). Preparation of Solutions:
The FaSSGF solution was prepared as follows: • a) preparation of FaSSGF buffer: dissolve 2.0 g of NaCl as the raw material in about 0.9 L of purified water; • b) adjustment of the pH of the buffer: adjust the pH of the buffer to 1.6 with 1N HCL, and replenish the buffer with purified water to the volume of 1 L; and • c) preparation of FaSSGF solution by addition of FaSSGF powder: add 0.06 g of the FaSSGF powder to about 0.5 L of the buffer, stir until the powder was completely dissolved, and make up for the volume (1 L) with the buffer.
The FaSSIF solution was prepared as follows: • a) preparation of FaSSIF buffer: dissolve 0.42 g of NaOH, 3.44 g of anhydrous NaH2PO4, and 6.19 g of NaCl as raw materials in about 0.9 L of purified water; • b) adjustment the pH of the buffer: adjust the pH of the buffer to 6.5 with 1 N NaOH or 1 N HCL, and replenish the buffer with purified water to the volume of 1 L; and • c) preparation of FaSSIF solution by addition of FaSSIF powder: add 2.24 g of the FaSSIF powder to about 0.5 L of the buffer, stir until the powder was completely dissolved, and make up for the volume (1 L) with the buffer.
2). Preparation of the Solution of Control Compound:
The control compound was weighed and dissolved in DMSO to 10 mM to obtain a stock solution.
3) Preparation of the Solution of Compound to be Tested:
The compound to be tested was formulated into a 10 mM DMSO stock solution.
4) Preparation of Internal Standard Solution:
a) The internal standard was weighed and dissolved in DMSO to 10 mM to obtain an internal standard stock solution (ISTD stock solution).
b) The internal standard stock solution was diluted to 500 nM (Tolbutamide) with an ACN:methano mixture (volume ratio: 1:1) to obtain a quenching solution.
a) The FaSSGF solution at pH 1.6 and the FaSSIF solution at pH 6.5 were pre-warmed; and then, the compound was injected into the buffer.
Once done, the samples were centrifuged at 12,000 rpm for 10 min, and the supernatant was transferred to a new tube. The supernatant was diluted 10-fold and 100-fold with the FaSSGF solution at pH 1.6 or the FaSSIIF solution at pH 6.5. 20 μL of each sample (1×, 10×, 100× and standard curve) was added to 500 μL of the IS solution. The resulting mixture was vortexed vigorously for 1 min and centrifuged at 4,500 rpm for 15 min at 4° C. 150 μL of the supernatant was transferred for LC-MS/MS sample analysis.

[6] = target: T1, PXR (Homo sapiens, UniProt O75469); assay: PXR assay (DPX2 luciferase reporter cells); assay type: cell-based; settings: 24 h; for PXR Activation @30 uM (% Ctrl): positive control rifampicin
T1 construct: host or cells: DPX2 (HepG2)
T1 sequence (O75469 1-434): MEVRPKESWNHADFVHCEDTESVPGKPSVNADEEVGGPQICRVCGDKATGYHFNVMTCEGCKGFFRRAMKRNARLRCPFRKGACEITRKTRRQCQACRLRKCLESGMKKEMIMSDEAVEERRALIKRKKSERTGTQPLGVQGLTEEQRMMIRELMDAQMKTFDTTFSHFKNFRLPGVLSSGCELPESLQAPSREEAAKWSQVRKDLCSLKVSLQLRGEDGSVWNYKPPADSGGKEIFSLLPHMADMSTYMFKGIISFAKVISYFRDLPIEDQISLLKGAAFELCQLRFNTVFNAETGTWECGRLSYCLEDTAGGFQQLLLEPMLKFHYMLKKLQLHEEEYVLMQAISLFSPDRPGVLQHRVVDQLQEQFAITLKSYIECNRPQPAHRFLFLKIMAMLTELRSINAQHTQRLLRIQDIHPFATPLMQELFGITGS
Description: 1) Information of Cell Line
DPX2 (HepG2 cells stably transfected with PXR and luciferase reporter) cells were purchased from Puracyp Inc (Carlsbad, CA).
2) Experimental Procedures a) Reagents and Consumables
The DPX2 cells were cultured in the growth medium containing 1000 fetal bovine serum. The DPX2 cells in a T-75 flask were cultured in the […] incubator at 37° C. with 950% relative humidity, and digested when the cells grew to cover 80-90% of the bottom of the flask.
The surface layer of the T-75 cultured cells was washed with 10 mL of PBS; PBS was pipetted; 3-5 mL of tryp sin was added; the cells were digested at 37° C. for 5 minutes or until the cells were digested to be suspended; and excessive medium containing fetal bovine serum was added to stop trypsinization. The cell suspension was transferred to a conical-bottomed centrifuge tube and centrifuged at 150 g rpm for 5 minutes at room temperature; the supernatant was carefully pipetted; and the cells were resuspended with the treatment medium, with the concentration adjusted to 3.2×10^5 cells/mL (incubation time: 24 hours, plate seeding density: […]). 25 μL of the cell suspension was added to each well of the 384-well cell culture plate.
The cell culture plate was placed and cultured for 24 h in the […] incubator with 9500 humidity at 37° C. c) Formulation of Compound
The stock solution of each of 1000× test compound, the positive control (rifampicin), and the negative control (propranolol) was prepared with DMSO. The final concentrations of the positive control (rifampicin) were 1 μM and 10 μM, and the final concentration of the negative control (propranolol) was 10 μM. The final concentrations of the test compound were 10 μM, 1 μM, 0.1 μM, or EC50 (30 μM, 10 μM, 3 μM, 1 μM, 0.3 μM, 0.1 μM). The final concentration of DMSO was 0.10. The cell culture plate was taken out from the incubator, and 25 nL of the stock solution of the positive control, negative control or test compound was directly added with Echo, each with three parallel concentrations. The cell culture plate was placed in the incubator and continued to be incubated for 24 h. Before starting the assay with the substrate, the cell morphology and the monolayer integrity were checked to ensure that the monolayer was of acceptable research quality. […]
d) Quantitative Detection with PXR Activation
After 24 hours of dosing, the culture could be quantitatively detected with PXR activation. The CellTiter-Fluor™ Cell Viability Assay Kit and One-Glo Luciferase reagent were equilibrated to room temperature. The GF-AFC substrate (10 μL) was added to the assay buffer (10 ml) to develop a 2× reagent, which was then diluted into a 1× reagent with 10 ml of PBS. The ONE-Glo Luciferase substrate was added to the ONE-Glo Luciferase assay buffer. The culture plate was taken out from the incubator; the medium was discarded; 1× of CellTiter-Fluor™ reagent was poured into the loading slot; 25 μL of reagent were added per well to the culture plate with a pipetting workstation; and the culture plate was then incubated in the incubator for 30 minutes. The cell culture plate was taken out from the incubator, and cooled slightly to room temperature; and the fluorescence value was determined with a fully automatic quantitative microplate reader, with the excitation light of 400 nm and the emission light of 505 nm. The ONE-Glo reagent was poured into the loading slot, with 25 μL per well, and the resulting mixture was gently mixed in the plate, and incubated at room temperature for 5 minutes to determine the luminescence value.

[7] = fassgf or other biorelevant, FaSSGF solution pH 1.6, 100 μM from DMSO stock, read-out: FaSSGF solubility
[8] = FaSSIF solution pH 6.5, 100 μM from DMSO stock, read-out: FaSSIF solubility

Sequence of PARG (Q86W56 whole entry): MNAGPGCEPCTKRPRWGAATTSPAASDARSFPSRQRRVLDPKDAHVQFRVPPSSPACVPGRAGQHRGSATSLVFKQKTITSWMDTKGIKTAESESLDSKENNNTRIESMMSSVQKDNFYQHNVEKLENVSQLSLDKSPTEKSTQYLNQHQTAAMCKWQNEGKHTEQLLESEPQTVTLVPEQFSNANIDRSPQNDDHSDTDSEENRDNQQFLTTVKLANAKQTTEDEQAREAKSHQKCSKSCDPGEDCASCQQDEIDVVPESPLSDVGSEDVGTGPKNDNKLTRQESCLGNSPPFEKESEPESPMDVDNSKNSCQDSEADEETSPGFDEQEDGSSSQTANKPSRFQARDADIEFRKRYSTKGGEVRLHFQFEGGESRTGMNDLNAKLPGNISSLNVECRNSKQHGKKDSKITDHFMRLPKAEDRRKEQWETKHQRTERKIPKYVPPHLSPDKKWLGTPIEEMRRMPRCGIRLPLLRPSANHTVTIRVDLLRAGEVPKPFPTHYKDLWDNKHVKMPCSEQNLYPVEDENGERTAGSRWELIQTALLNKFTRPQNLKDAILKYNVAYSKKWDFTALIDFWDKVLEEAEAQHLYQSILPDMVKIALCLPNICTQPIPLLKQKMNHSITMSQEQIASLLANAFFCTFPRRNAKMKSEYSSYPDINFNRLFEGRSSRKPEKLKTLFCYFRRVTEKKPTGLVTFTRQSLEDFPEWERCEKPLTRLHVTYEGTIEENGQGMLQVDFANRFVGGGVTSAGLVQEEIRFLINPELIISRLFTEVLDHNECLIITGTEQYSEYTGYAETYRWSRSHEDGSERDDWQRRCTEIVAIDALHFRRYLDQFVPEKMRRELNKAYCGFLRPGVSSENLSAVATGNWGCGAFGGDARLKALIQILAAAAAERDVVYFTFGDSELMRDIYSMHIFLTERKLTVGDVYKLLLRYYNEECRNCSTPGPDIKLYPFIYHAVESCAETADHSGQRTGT
Sequence of PARG (poly ADP-ribonal hydrolase) (Q86W56 whole entry): as above

| IC50 [1] | IC50 ([2]; 4 nM PARG, 66.2 uM TFMU-ADPr, 3 min at room temperature) | IC50 ([2]; PARG, TFMU-ADPr substrate) | IC50 ([3]; HCC1806, In-Cell Western, MMS treatment) | IC50 ([3]; HCC1806, compound 1 h then 0.5 mM MMS 1 h, PAR/pADPr antibody, In-Cell Western) | IC50 [4] | IC50 ([4]; Homo sapiens, HCC1806, 168 h) | solubility at 2 h [5, 7] | solubility at 2 h [5, 8] | PXR Activation @30 uM (Fold) [6] | PXR Activation @30 uM (% Ctrl) [6] | SMILES |
| --- | --- | --- | --- | --- | --- | --- | --- | --- | --- | --- | --- |
| 128 nM |  |  |  |  |  |  |  |  |  |  | CC(C)C(=O)N1CCN(c2cc(S(=O)(=O)NC(C)C(F)(F)F)cn3c(-c4nnc(C(F)F)s4)ncc23)CC1 (stereo not drawn) [Example 35, 3-(5-(difluoromethyl)-1,3,4-thiadiazol-2-yl)-8-(4-isobutyrylpiperazin-1-yl)-N-(1,1,1-trifluoropropan-2-yl)imidazo[1,5-a]pyridine-6-sulfonamide] |
|  | < 100 nM | 2.04 nM | 74 nM | < 100 nM | 513 nM | 500 to 5000 nM | 15.9 µM (≈ 8.23 µg/mL) | 24.2 µM (≈ 12.5 µg/mL) |  |  | CC1(O)CCN(c2cc(S(=O)(=O)NC3(CF)CC3)cn3c(-c4nnc(C(F)F)s4)nnc23)CC1 [Example 107, 3-(5-(difluoromethyl)-1,3,4-thiadiazol-2-yl)-N-(1-(fluoromethyl)cyclopropyl)-8-(4-hydroxy-4-methylpiperidin-1-yl)-[1,2,4]triazolo[4,3-a]pyridine-6-sulfonamide] |
|  |  | 3.8 nM |  |  | 1100 nM |  | 75.7 µM (≈ 44.1 µg/mL) | 82.6 µM (≈ 48.1 µg/mL) | 1.5 Fold | 7 % Ctrl | N#CC1(NS(=O)(=O)c2cc(N3CCN(C(=O)C4CCO4)CC3)c3cnc(-c4nnc(C(F)(F)F)s4)n3c2)CC1 (stereo not drawn) [Example 236, N-(1-cyanocyclopropyl)-8-(4-(oxetane-2-carbonyl)piperazin-1-yl)-3-(5-(trifluoromethyl)-1,3,4-thiadiazol-2-yl)imidazo[1,5-a]pyridine-6-sulfonamide] |
|  |  | 6.03 nM |  |  |  | 8780 nM | 80.6 µM (≈ 46.9 µg/mL) | 78.1 µM (≈ 45.4 µg/mL) | 1.5 Fold | 11 % Ctrl | N#CC1(NS(=O)(=O)c2cc(N3CCN(C(=O)C4CNC4)CC3)c3cnc(-c4nnc(C(F)(F)F)s4)n3c2)CC1 [Example 251, 8-(4-(azetidine-3-carbonyl)piperazin-1-yl)-N-(1-cyanocyclopropyl)-3-(5-(trifluoromethyl)-1,3,4-thiadiazol-2-yl)imidazo[1,5-a]pyridine-6-sulfonamide] |
